Data taken from patent EP4793274A1, “SALT AND CRYSTAL FORM OF KIF18A INHIBITOR COMPOUND, PREPARATION METHOD THEREFOR AND USE THEREOF” (Hubei Bio-Pharmaceutical Industrial Technological Institute …, priority 2023, dated 2025).
Structures can show the parent of a compound that is named as a salt.

Columns and labels:
[1] = Solubility at room temperature in water, SGF and FaSSIF (HPLC concentration, pH of filtrate, XRPD of residual solid); details: for S: solubility: feeding concentration 1 mg/mL; for pH: pH of filtrate
Protocol: 100 mg of NaCl and 50 mg of Triton X-100 were weighed into a 50 mL volumetric flask and then completely dissolved by addition of purified water. 816 µL of 1 M hydrochloric acid was added, and the pH was adjusted to 1.8 with 1 M hydrochloric acid or 1 M NaOH solution. The mixed solution was brought to the volume by addition of purified water.
340 mg of anhydrous NaH2PO4 and 620 mg of NaCl were weighed into a 100 mL volumetric flask, and then completely dissolved by addition of purified water. 55.44 µL of a 50% NaOH solution was then added, and the pH was adjusted to 6.5 with 1 M hydrochloric acid or 1 M NaOH solution. The mixed solution was brought to the volume by addition of purified water. Subsequently, 110 mg of SIF powder was weighed into a 50 mL volumetric flask and completely dissolved in the solution described above, and the mixed solution was brought to the volume.
Solids at a feeding concentration of 1 mg/mL (calculated based on free crystal form) were rotationally mixed with corresponding vehicles at room temperature. […] After sampling at each time point, the samples were centrifuged (at 10000 rpm) and filtered (through a 0.22 µm PTFE filter head), the HPLC concentrations and pH values of the filtrates were determined, and the centrifuged solid samples were subjected to XRPD analysis.

[2] = Dynamic solubility at 37 °C in H2O, SGF, FaSSIF and FeSSIF (HPLC concentration, pH of filtrate, XRPD of residual solid); type: physicochemical; details: listed as Crystal form E of methanesulfonate; for S: solubility: feeding concentration 10 mg/mL; for FC: crystal form change: XRPD of residual solid; for pH: pH of filtrate
Protocol: 0.82 mL of glacial acetic acid and 1.18 g of NaCl were added to a 100 mL volumetric flask and completely dissolved by addition of purified water.
The solubility of each sample in H2O, SGF, FaSSIF, and FeSSIF was determined at different time points (1 h, 2 h, 4 h, and 24 h). […] 137-156. […] Table C-2. Summary of dynamic solubility test results at 37 °C

[3] = Hygroscopicity by dynamic vapor sorption (DVS); type: physicochemical; details: 25 °C/80% RH
Protocol: Dynamic vapor sorption (DVS) curves were acquired on a DVS IntrInsic from Surface Measurement Systems (SMS). The relative humidity at 25 °C was corrected with the deliquescence points of LiCl, Mg(NO3)2, and KCl. Table A-5. DVS test parameters
The percentage changes in mass of the samples when the humidity changed (0% RH to 95% RH) at a constant temperature of 25 °C were collected. 157-166.

[4] = Solid state stability (XRPD and HPLC purity); type: physicochemical
Text: 167-171. […] Table C-3. Summary of solid state stability evaluation

[5] = 80 °C/sealed, 1 day, listed as Crystal form E of methanesulfonate

## Cc1cc(-c2cnn(-c3ccc(NS(=O)(=O)CCO)cc3N3CCC4(CC3)CC4)c2)nc(N2CCC(F)(F)CC2)n1 [free crystal form C]
[1]; FaSSIF, 2 h, 120 min
  S: solubility: 13.6 µg/mL
[1]; FaSSIF, 24 h, 1440 min
  S: solubility: 3.8 µg/mL
[1]; SGF, 2 h, 120 min
  S: solubility: 4 µg/mL
[1]; SGF, 24 h, 1440 min
  S: solubility: 3.4 µg/mL
[1]; FaSSIF, 2 h
  pH: 6.5
[1]; FaSSIF, 24 h
  pH: 6.5
[1]; H2O, 2 h
  pH: 8.7
[1]; H2O, 24 h
  pH: 7.2
[1]; SGF, 2 h
  pH: 1.9
[1]; SGF, 24 h
  pH: 1.9

## Cc1cc(-c2cnn(-c3ccc(NS(=O)(=O)CCO)cc3N3CCC4(CC3)CC4)c2)nc(N2CCC(F)(F)CC2)n1 [crystal form E of the methanesulfonate]
[2]; FaSSIF, 1 h, 60 min
  S: solubility: 60.4 µg/mL
[2]; FaSSIF, 2 h, 120 min
  S: solubility: 46.6 µg/mL
[2]; FaSSIF, 4 h, 240 min
  S: solubility: 35.9 µg/mL
[2]; FaSSIF, 24 h, 1440 min
  S: solubility: 18.7 µg/mL
[2]; FeSSIF, 1 h, 60 min
  S: solubility: 194.4 µg/mL
[2]; FeSSIF, 2 h, 120 min
  S: solubility: 183.4 µg/mL
[2]; FeSSIF, 4 h, 240 min
  S: solubility: 172.5 µg/mL
[2]; FeSSIF, 24 h, 1440 min
  S: solubility: 89.9 µg/mL
[2]; H2O, 1 h, 60 min
  S: solubility: 18.5 µg/mL
[2]; H2O, 2 h, 120 min
  S: solubility: 14.5 µg/mL
[2]; H2O, 4 h, 240 min
  S: solubility: 12.4 µg/mL
[2]; H2O, 24 h, 1440 min
  S: solubility: 4.5 µg/mL
[2]; SGF, 1 h, 60 min
  S: solubility: 125.1 µg/mL
[2]; SGF, 2 h, 120 min
  S: solubility: 100.2 µg/mL
[2]; SGF, 4 h, 240 min
  S: solubility: 84.6 µg/mL
[2]; SGF, 24 h, 1440 min
  S: solubility: 16.4 µg/mL
[2]; FaSSIF, 1 h
  FC: crystal form change: Yes
  pH: 2.78
[2]; FaSSIF, 2 h
  FC: crystal form change: Yes
  pH: 2.76
[2]; FaSSIF, 4 h
  FC: crystal form change: Yes
  pH: 2.77
[2]; FaSSIF, 24 h
  FC: crystal form change: Yes
  pH: 2.84
[2]; FeSSIF, 1 h
  FC: crystal form change: Yes
  pH: 4.69
[2]; FeSSIF, 2 h
  FC: crystal form change: Yes
  pH: 4.68
[2]; FeSSIF, 4 h
  FC: crystal form change: Yes
  pH: 4.70
[2]; FeSSIF, 24 h
  FC: crystal form change: Yes
  pH: 4.70
[2]; H2O, 1 h
  FC: crystal form change: Yes
  pH: 1.79
[2]; H2O, 2 h
  FC: crystal form change: Yes
  pH: 1.76
[2]; H2O, 4 h
  FC: crystal form change: Yes
  pH: 1.80
[2]; H2O, 24 h
  FC: crystal form change: Yes
  pH: 1.76
[2]; SGF, 1 h
  FC: crystal form change: Yes
  pH: 1.49
[2]; SGF, 2 h
  FC: crystal form change: Yes
  pH: 1.46
[2]; SGF, 4 h
  FC: crystal form change: Yes
  pH: 1.48
[2]; SGF, 24 h
  FC: crystal form change: Yes
  pH: 1.54
[3]
  vapor sorption values: 2.324%
[4]; 25 °C/60% RH/open, 1 week
  HPLC results Relative to starting (%): 100.0%
[4]; 25 °C/60% RH/open, 1 week, listed as Crystal form E of methanesulfonate
  HPLC results Purity (area%): 98.39 area%
[4]; 40 °C/75% RH/open, 1 week
  HPLC results Relative to starting (%): 100.0%
[4]; 40 °C/75% RH/open, 1 week, listed as Crystal form E of methanesulfonate
  HPLC results Purity (area%): 98.39 area%
[4]; [5]
  HPLC results Purity (area%): 98.37 area%
  HPLC results Relative to starting (%): 100.0%
[4]; Starting, listed as Crystal form E of methanesulfonate
  HPLC results Purity (area%): 98.36 area%
[4]; XRPD after 25 °C/60% RH/open, 1 week, listed as Crystal form E of methanesulfonate
  Crystal form: Crystal form E of methanesulfonate
[4]; XRPD after 40 °C/75% RH/open, 1 week, listed as Crystal form E of methanesulfonate
  Crystal form: Crystal form E of methanesulfonate
[4]; XRPD after 80 °C/sealed, 1 day, listed as Crystal form E of methanesulfonate
  Crystal form: Crystal form E of methanesulfonate

## Cc1cc(-c2cnn(-c3ccc(NS(=O)(=O)CCO)cc3N3CCC4(CC3)CC4)c2)nc(N2CCC(F)(F)CC2)n1 [crystal form C of the hydrochloride]
[1]; FaSSIF, 2 h, listed as Crystal form C of hydrochloride, 120 min
  S: solubility: 120.4 µg/mL
[1]; FaSSIF, 24 h, listed as Crystal form C of hydrochloride, 1440 min
  S: solubility: 36.3 µg/mL
[1]; H2O, 24 h, listed as Crystal form C of hydrochloride, 1440 min
  S: solubility: 0.2 µg/mL
[1]; SGF, 2 h, listed as Crystal form C of hydrochloride, 120 min
  S: solubility: 54.1 µg/mL
[1]; SGF, 24 h, listed as Crystal form C of hydrochloride, 1440 min
  S: solubility: 18.8 µg/mL
[1]; FaSSIF, 2 h, listed as Crystal form C of hydrochloride
  pH: 6.3
[1]; FaSSIF, 24 h, listed as Crystal form C of hydrochloride
  pH: 6.3
[1]; H2O, 2 h, listed as Crystal form C of hydrochloride
  pH: 2.7
[1]; H2O, 24 h, listed as Crystal form C of hydrochloride
  pH: 2.7
[1]; SGF, 2 h, listed as Crystal form C of hydrochloride
  pH: 1.8
[1]; SGF, 24 h, listed as Crystal form C of hydrochloride
  pH: 1.8
